Assay results reported in patent US11247965B2 (VenatoRx Pharmaceuticals, Inc., priority 2017, dated 2022).

Experiments:
[1] = tested on: HBV replication in HepAD38 cells; assay: Anti-HBV activity in HepAD38 cells, extracellular HBV DNA by QPCR; type: cell-based, HBV (genotype D, serotype ayw); details: Hepatitis B virus, HePAD38, 168 h, read-out: Anti-HBV EC50, HepAD38 cells, extracellular HBV DNA by QPCR, 7 days of incubation
How it was run: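 Seven-day compound exposure (30 μM down to 10 nM, half-log steps) after tetracycline withdrawal induced HBV replication in HepAD38 cells. Extracellular viral DNA measured by QPCR (copies/mL via standard curve), normalised to DMSO wells; EC50 from 4-parameter non-linear regression.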

[2] = In vitro cytotoxicity, MTT cell viability assay in HepG2 cells; type: cell-based; details: human, Cytotoxicity CC50
How it was run: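 Parental HepG2 cells in EMEM + 10% FBS were exposed to compounds (8 half-log dilutions, 30 μM to 1.0 nM) for 7 days at 37 °C, 5% CO2. MTT was then added for 3-4 h, formazan dissolved in DMSO and absorbance read at 492 nm; CC50 came from 4-parameter fits against vehicle controls.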

SMILES	EC50 [1]	CC50 at 7 days [2]
Cc1cc(NC(=O)c2ccc(F)c(C(F)(F)C(=O)NCB3O[C@@H]4C[C@@H]5C[C@@H](C5(C)C)[C@]4(C)O3)c2)ccc1F [Example 149, 3-(1,1-difluoro-2-oxo-2-((((3aS,4S,6S,7aR)-3a,5,5-trimethylhexahydro-4,6-methanobenzo[d][1,3,2]dioxaborol-2-yl)methyl)amino)ethyl)-4-fluoro-N-(4-fluoro-3-methylphenyl)benzamide]	< 5 µM	5 to 30 µM
Cc1cc(NC(=O)c2cc(C(F)(F)C(=O)NC(C)(C)C)n(C)c2C)ccc1F [Example 106, 5-(2-(tert-butylamino)-1,1-difluoro-2-oxoethyl)-N-(4-fluoro-3-methylphenyl)-1,2-dimethyl-1H-pyrrole-3-carboxamide]	< 5 µM	5 to 30 µM
Cc1cc(NC(=O)c2ccc(F)c(C(F)(F)C(=O)N3Cc4sc(N)nc4C(C)(C)C3)c2)ccc1F [Example 339, 3-(2-(2-amino-7,7-dimethyl-6,7-dihydrothiazolo[5,4-c]pyridin-5(4H)-yl)-1,1-difluoro-2-oxoethyl)-4-fluoro-N-(4-fluoro-3-methylphenyl)benzamide]	< 5 µM	5 to 30 µM
CC(C)(C)NC(=O)C(F)(F)c1cc(C(=O)Nc2ccc(F)c(F)c2)ccc1F [Example 18, 3-(2-(tert-butylamino)-1,1-difluoro-2-oxoethyl)-N-(3,4-difluorophenyl)-4-fluorobenzamide]	5 to 30 µM	5 to 30 µM
Cc1cc(NC(=O)c2ccc(F)c(C(F)(F)C(=O)N3CCc4[nH]ncc4C3)c2)ccc1F [Example 204, 3-(1,1-difluoro-2-oxo-2-(1,4,6,7-tetrahydro-5H-pyrazolo[4,3-c]pyridin-5-yl)ethyl)-4-fluoro-N-(4-fluoro-3-methylphenyl)benzamide]	< 5 µM	5 to 30 µM
Cc1cc(NC(=O)c2ccc(F)c(C(F)(F)C(=O)N3CCC(C(=O)O)CC3)c2)ccc1F [Example 118, 1-(2,2-difluoro-2-(2-fluoro-5-((4-fluoro-3-methylphenyl)carbamoyl)phenyl)acetyl)piperidine-4-carboxylic acid]	< 5 µM	> 30 µM
CC(C)NC(=O)C(F)(F)c1cc(C(=O)Nc2ccc(F)c(F)c2)ccc1F [Example 7, 3-(1,1-difluoro-2-(isopropylamino)-2-oxoethyl)-N-(3,4-difluorophenyl)-4-fluorobenzamide]	5 to 30 µM	5 to 30 µM
CCn1cc(C(=O)Nc2ccc(F)c(C)c2)cc1C(F)(F)C(=O)NC(C)(C)C [Example 134, 5-(2-(tert-butylamino)-1,1-difluoro-2-oxoethyl)-1-ethyl-N-(4-fluoro-3-methylphenyl)-1H-pyrrole-3-carboxamide]	< 5 µM	> 30 µM
CNS(=O)(=O)N1C[C@@H](C)N(C(=O)C(F)(F)c2cc(C(=O)Nc3ccc(F)c(C)c3)ccc2F)[C@@H](C)C1 [Example 291, 3-(2-((2S,6R)-2,6-dimethyl-4-(N-methylsulfamoyl)piperazin-1-yl)-1,1-difluoro-2-oxoethyl)-4-fluoro-N-(4-fluoro-3-methylphenyl)benzamide]	< 5 µM	5 to 30 µM
COc1ccc(C(F)(F)C(=O)N2CCC(O)CC2)cc1C(=O)Nc1ccc(F)c(C)c1 [Example 91, 5-(1,1-difluoro-2-(4-hydroxypiperidin-1-yl)-2-oxoethyl)-N-(4-fluoro-3-methylphenyl)-2-methoxybenzamide]	> 30 µM	> 30 µM
Cc1cc(NC(=O)c2ccc(C(F)(F)C(=O)NC(C)(C)CO)s2)ccc1F [Example 82, 5-(1,1-difluoro-2-((1-hydroxy-2-methylpropan-2-yl)amino)-2-oxoethyl)-N-(4-fluoro-3-methylphenyl)thiophene-2-carboxamide]	> 30 µM	> 30 µM
Cc1cc(NC(=O)c2ccc(F)c(C(F)(F)C(=O)N3CCC(O)C(F)(F)C3)c2)cc(F)c1F (stereo not drawn) [Example 250, 3-(2-(3,3-difluoro-4-hydroxypiperidin-1-yl)-1,1-difluoro-2-oxoethyl)-N-(3,4-difluoro-5-methylphenyl)-4-fluorobenzamide]	< 5 µM	5 to 30 µM
O=C(Nc1ccnc(Cl)c1)c1ccc(F)c(C(F)(F)C(=O)N2CCC(O)C(F)(F)C2)c1 (stereo not drawn) [Example 195, N-(2-chloropyridin-4-yl)-3-(2-(3,3-difluoro-4-hydroxypiperidin-1-yl)-1,1-difluoro-2-oxoethyl)-4-fluorobenzamide]	< 5 µM	< 5 µM
O=C(Nc1cc(F)c(F)c(F)c1)c1ccc(F)c(C(F)(F)C(=O)N2[C@@H]3CC[C@H]2C[C@H](O)C3)c1 [Example 188, 3-(1,1-difluoro-2-((1R,3s,5S)-3-hydroxy-8-azabicyclo[3.2.1]octan-8-yl)-2-oxoethyl)-4-fluoro-N-(3,4,5-trifluorophenyl)benzamide]	< 5 µM	5 to 30 µM
Cc1cc(NC(=O)c2ccc(F)c(C(F)(F)C(=O)N3[C@H](C)CN(S(=O)(=O)c4cccnc4)C[C@@H]3C)c2)ccc1F [Example 290, 3-(2-((2S,6R)-2,6-dimethyl-4-(pyridin-3-ylsulfonyl)piperazin-1-yl)-1,1-difluoro-2-oxoethyl)-4-fluoro-N-(4-fluoro-3-methylphenyl)benzamide]	< 5 µM	5 to 30 µM
Cc1cc(NC(=O)c2cc(C(F)(F)C(=O)NC(C)(C)C)n(C)c2)ccc1F [Example 100, 5-(2-(tert-butylamino)-1,1-difluoro-2-oxoethyl)-N-(4-fluoro-3-methylphenyl)-1-methyl-1H-pyrrole-3-carboxamide]	< 5 µM	> 30 µM
Cc1cc(NC(=O)c2ccc(F)c(C(F)(F)C(=O)N3CCC[C@H]3B(O)O)c2)ccc1F [Example 153, (R)-(1-(2,2-difluoro-2-(2-fluoro-5-((4-fluoro-3-methylphenyl)carbamoyl)phenyl)acetyl)pyrrolidin-2-yl)boronic acid]	< 5 µM	> 30 µM
Cc1cc(NC(=O)c2ccc(F)c(C(F)(F)C(=O)N3[C@@H]4COC[C@H]3CN(S(C)(=O)=O)C4)c2)ccc1F [Example 211, 3-(1,1-difluoro-2-((1R,5S)-7-(methylsulfonyl)-3-oxa-7,9-diazabicyclo[3.3.1]nonan-9-yl)-2-oxoethyl)-4-fluoro-N-(4-fluoro-3-methylphenyl)benzamide]	< 5 µM	> 30 µM
CCC(C)NC(=O)C(F)(F)c1cc(C(=O)Nc2ccc(F)c(Cl)c2)cn1C (stereo not drawn) [Example 136, 5-(2-(sec-butylamino)-1,1-difluoro-2-oxoethyl)-N-(3-chloro-4-fluorophenyl)-1-methyl-1H-pyrrole-3-carboxamide]	5 to 30 µM	> 30 µM
Cc1cc(NC(=O)c2ccc(F)c(C(F)(F)C(=O)N3CCc4nc(N)sc4C3)n2)ccc1F [Example 303, 6-(2-(2-amino-6,7-dihydrothiazolo[5,4-c]pyridin-5(4H)-yl)-1,1-difluoro-2-oxoethyl)-5-fluoro-N-(4-fluoro-3-methylphenyl)picolinamide]	< 5 µM	5 to 30 µM
O=C(Nc1ccc(F)c(F)c1)c1ccc(F)c(C(F)(F)C(=O)NCc2cccnc2)c1 [Example 66, 3-(1,1-difluoro-2-oxo-2-((pyridin-3-ylmethyl)amino)ethyl)-N-(3,4-difluorophenyl)-4-fluorobenzamide]	5 to 30 µM	> 30 µM
